Results on four molecules are retold here after DBAASP.

Test systems include Enterococcus sp. S13; Pseudomonas putida; Bacillus subtilis; Candida krusei NCPF 3876; Escherichia coli LEC001; Klebsiella pneumoniae M6; Staphylococcus aureus; Candida albicans 01U; Candida albicans 38U; Trichophyton rubrum.
Holding throughout (experiment): ≥ marks a high value that may be exact or a test limit, other limits are often not marked, values filed in µg/mL are converted to µM
In test [1] the test system is Bacillus magaterium AB90008.
Test [2] relates to Candida tropicalis AY91009.
The test system of test [3] is Enterobacter cloacae AB2010162.
In test [4] the test system is Escherichia coli DH5alpha.
In test [5] the test system is Klebsiella oxytoca AB2010143.
Test [6] deals with Micrococcus luteus AB2010179.
For test [7], the system named is Salmonella enterica AB2010185.
Test [8] deals with Staphylococcus aureus 16472.
For test [9], the system named is Staphylococcus aureus AB94004.
Test [10] deals with Acinetobacter baumannii Ab11.
For test [11], the system named is Acinetobacter baumannii CR17.
Test [12] has as its system Acinetobacter baumannii CR86.
Test [13] concerns Acinetobacter baumannii ATCC 17978.
Test [14] has as its system Acinetobacter baumannii AYE.
Test [15] relates to Candida glabrata NCPF 8018.
Test [16] concerns Candida parapsilosis NCPF 3209.
The subject of test [17] is Candida tropicalis NCPF 8760.
In test [18] the test system is Escherichia coli ATCC 25922.
The test system of test [19] is Escherichia coli NCTC 12923.
In test [20] the test system is Klebsiella pneumoniae NCTC 13368.
For test [21], the system named is Pseudomonas aeruginosa NCTC 13437.
Test [22] relates to Pseudomonas aeruginosa PAO1.
Test [23] has as its system Staphylococcus aureus ATCC 25923.
Test [24] relates to Staphylococcus aureus ATCC 9144.
Test [25] relates to Staphylococcus aureus NCTC 13616.
Test [26] concerns Staphylococcus aureus USA 300.
Test [27] deals with Bacillus subtilis ATCC 6633.
The test system of test [28] is Candida parapsilosis ATCC 22019.
In test [29] the test system is Cryptococcus neoformans L26.
Test [30] has as its system Cryptococcus neoformans L30.
The test system of test [31] is Enterococcus faecalis ATCC 12953.
The subject of test [32] is Erwinia amylovora PMV 6076.
Test [33] concerns Escherichia coli ATCC 8739.
In test [34] the test system is Klebsiella pneumoniae ATCC 13885.
In test [35] the test system is Proteus mirabilis ATCC 25933.
In test [36] the test system is Pseudomonas aeruginosa ATCC 15442.
In test [37] the test system is Pseudomonas syringae pv. actinidiae Psa3700.1.1.
For test [38], the system named is Pseudomonas syringae pv. syringae EPS 94.
The subject of test [39] is Salmonella enterica subsp. enterica serovar Typhimurium ATCC 14028.
Test [40] has as its system Staphylococcus aureus ATCC 29213.
Test [41] has as its system Streptococcus pyogenes ATCC 19615.
Test [42] has as its system Trichophyton mentagrophytes.
The test system of test [43] is Xanthomonas arboricola pv. pruni CFBP 5563.
Test [44] deals with Xanthomonas campestris pv. Vesicatoria 2133-2.
For test [45], the system named is Xanthomonas fragariae Xf349-9A.

Converted amounts (≈) assume the structure as drawn.

On to `CC[C@H](C)[C@H](NC(=O)CNC(=O)[C@H](CC(N)=O)NC(=O)[C@H](Cc1c[nH]c2ccccc12)NC(=O)[C@@H](NC(=O)[C@@H](NC(=O)[C@H](CO)NC(=O)[C@H](CC(C)C)NC(=O)[C@@H](N)Cc1ccccc1)[C@@H](C)O)[C@@H](C)CC)C(=O)N[C@@H](CCCCN)C(=O)N[C@@H](CO)C(=O)N[C@@H](CC(C)C)C(=O)N[C@@H](CC(C)C)C(=O)O` [FLSTIWNGIKSLL], for which the MIC (in general, the least concentration at which growth counts as inhibited) in test [1] is 6 µM (≈ 8.95 µg/mL); in test [2], 17 µM (≈ 25.4 µg/mL); in test [3], at least 87 µM; in the test with Enterococcus sp. S13, 4 µM (≈ 5.97 µg/mL); in [4], at least 36 µM; in [5], at least 87 µM. Moreover, the MIC in [6] is 8 µM (≈ 11.9 µg/mL); against Pseudomonas putida, at least 87 µM; in [7] it was at least 84 µM; in [8], 12 µM (≈ 17.9 µg/mL); in test [9], 16 µM (≈ 23.9 µg/mL).
Regarding `CC[C@H](C)[C@H](NC(C)=O)C(=O)N[C@@H](CC(N)=O)C(=O)N[C@@H](CC(C)C)C(=O)N[C@@H](CCCCN)C(=O)N[C@@H](C)C(=O)N[C@@H](CC(C)C)C(=O)N[C@@H](C)C(=O)N[C@@H](C)C(=O)N[C@@H](CC(C)C)C(=O)N[C@@H](C)C(=O)N[C@@H](CCCCN)C(=O)N[C@@H](CCCCN)C(=O)N[C@H](C(=O)N[C@@H](CC(C)C)C(N)=O)[C@@H](C)CC` [INLKALAALAKKIL], the MIC in test [10] was at least 42 µM; in [11] it was 10.5 µM (≈ 16 µg/mL); in test [12], 21 µM (≈ 31.9 µg/mL).
For `CC[C@H](C)[C@H](NC(=O)[C@@H](N)CCCCN)C(=O)N[C@@H](C)C(=O)N[C@@H](CCCCN)C(=O)N[C@H](C(=O)N[C@@H](C)C(=O)N[C@@H](CC(C)C)C(=O)N[C@@H](CCCCN)C(=O)N[C@@H](C)C(=O)N[C@@H](CC(C)C)C(N)=O)C(C)C` [KIAKVALKAL], the MIC in [13] was at least 121 µM; in [14], at least 121 µM; in the test with Bacillus subtilis it was 13.7 µM (≈ 14.4 µg/mL); in test [15], at least 121 µM; against Candida krusei NCPF 3876 it was at least 121 µM; in test [16], at least 121 µM. In addition, the MIC in [17] was at least 121 µM; in test [18], 22.4 µM (≈ 23.6 µg/mL); against Escherichia coli LEC001 it was at least 121 µM; in [19], at least 121 µM; with Klebsiella pneumoniae M6, at least 121 µM; in test [20], at least 121 µM. In addition, the MIC in test [21] was at least 121 µM; in test [22], above 121 µM; in test [23], 8.25 µM (≈ 8.69 µg/mL); in [24], at least 121 µM; in test [25] it was at least 121 µM; in test [26] it was at least 121 µM. In the test with Staphylococcus aureus, this molecule gave an MIC of 64.3 µM (≈ 67.7 µg/mL).
Regarding `CSCC[C@H](NC(=O)CNC(=O)[C@H](CCC(N)=O)NC(=O)[C@H](C)NC(=O)[C@H](CCCN=C(N)N)NC(=O)CNC(=O)[C@H](C)NC(=O)[C@@H](NC(=O)[C@@H](N)CO)C(C)C)C(N)=O` [SVAGRAQGM], the MIC in test [27] is at least 36 µM; against Candida albicans 01U, 18 µM (≈ 15.8 µg/mL); against Candida albicans 38U it was 18 µM (≈ 15.8 µg/mL); in test [28] it was at least 144 µM; in test [29] it was at least 144 µM; in [30], at least 144 µM. Also, the MIC in test [31] was at least 36 µM; in test [32], at least 50 µM; in test [33] it was 18 µM (≈ 15.8 µg/mL); in [34], 9 µM (≈ 7.88 µg/mL); in test [35], 18 µM (≈ 15.8 µg/mL); in test [36], 9 µM (≈ 7.88 µg/mL). Besides, the MIC was at least 50 µM in [37]; at least 50 µM in [38]; 18 µM (≈ 15.8 µg/mL) in test [39]; 18 µM (≈ 15.8 µg/mL) in test [40]; at least 36 µM in test [41]; 18 µM (≈ 15.8 µg/mL) in [42]. The MIC in the test with Trichophyton rubrum is 18 µM (≈ 15.8 µg/mL); in test [43], at least 50 µM; in test [44], at least 50 µM; in test [45] it was at least 50 µM.
